Experiment [1] has as its system SH-SY5Y neuronal cells. Kind of experiment: In vitro anti-apoptosis assay (Caspase-Glo 3/7, staurosporine induced apoptosis). It counts as cell-based, human. As to the method:
Neuroprotection is attainable via the inhibition of apoptosis of affected neurons. The anti-apoptotic effect of tranilast and its derivatives can be assayed in vitro by measuring the caspase-3 and caspase-7 activities. These members of the cysteine aspartic acid-specific protease (caspase) family play key effector roles in apoptosis in mammalian cells. Cortical neurons have to be isolated and subsequently cultivated in a suitable culture medium. The cells have to be incubated with the test compound in the presence of an apoptotic substance such as staurosporine. Parallel approaches with staurosporine alone and sham treatment of the cells serve as […] controls. The assay allows evaluating whether the test compound can compensate either completely or partially for the apoptotic effect of staurosporine. This assay is suitable to assess the neuroprotective activity of tranilast and derivatives thereof, but also can be used to screen for other potential neuroprotective compounds. Preferably, such a screening can be used to test compounds which are already known to be suitable as a medicament in terms of its toxicology, bioavailability, solubility, stability etc.
The neuroprotective effect of compounds can be assayed in vitro by measuring caspase-3 and caspase-7 activities. These members of the cysteine aspartic acid-specific protease (caspase) family play a key effector role in apoptosis in mammalian cells.
The human neuroblastoma cell-line SH-SY5Y (American Type Culture Collection) maintained in DMEM with high glucose supplemented with 20% FBS was used for the apoptosis assay. Alternatively one can analyse the apoptosis of primary cortical neurons which can be isolated from E18 rats and subsequently cultivated in suitable culture medium. 2.5×10^4 SH-SY5Y cells were seeded in 96-well plates and stimulated 24 h later with tranilast or vehicle in the presence of the apoptosis inducing compound staurosporine (0.5 μM, Calbiochem). After 5 h incubation at 37° C., caspase-Glo 3/7 reagent (Promega) containing luciferase and luminogenic substrate was added to the cells. The cleavage of the substrate by caspase-3 and caspase-7 was detected 30 min later using a luminometer (Berthold Technologies, Mithras LB 940). The Luminescence which is proportional to the amount of caspase activity serves as a measure for the apoptosis of the treated neurons. Tranilast was tested in a range from 0.8 μM to 100 μM final concentration.
Analogously to Example 3, various derivatives of tranilast (N-(3′,4′-methylenedioxycinnamoyl)-anthranilic acid (FIG. 2a (ChemBridge Corporation)), 2-(3′,4′-dimethoxycinnamoylamino)-toluene (FIG. 2b (ChemBridge Corporation)), N-cinnamoyl-anthranilic acid (FIG. 2c (ChemBridge Corporation)), and 2-(3′,4′-dimethoxycinnamoylamino)-anisole (FIG. 2d (Ambinter SARL))) have been analysed for their anti-apoptotic activity. The SH-SY5Y cells have been incubated with these derivatives (1 μM) either alone or in the presence of staurosporine (0.5 μM). Incubation with staurosporine (0.5 μM) alone served as positive control and incubation with vehicle served as negative control. In the case of 3-(4′-chlorocinnamoylamino)-anisole (FIG. 2e (Sigma)) the SH-SY5Y cells have been incubated with this derivative (1 μM) either alone or in the presence of staurosporine […]. Accordingly, incubation with staurosporine […] alone served as positive control and incubation with vehicle served as negative control. The degree of apoptosis relative to the staurosporine control is shown in FIG. 4 a (vehicle (sham): 9% staurosporine (SP): 100%; tranilast: 8%; tranilast plus staurosporine: 75%; derivative A: 3%; derivative A plus staurosporine: 27%; derivative B: 7%; derivative B plus staurosporine: 79%; derivative C: 2%; derivative C plus staurosporine: 20%; derivative D: 7%; derivative D plus staurosporine: 80%) and FIG. 4 b (vehicle (sham): 13%; staurosporine: 100%; derivative E: 6%; derivative E plus staurosporine: 25%).

In experiment [2] the test system is neural stem cells. The experiment can be described thus: In vitro differentiation assay on adult neuronal stem cells (beta-III-tubulin promoter dual luciferase reporter). Format: cell-based, rat. The settings on record: 48 hrs; concentration ranges within 0.01 to 100 μM; versus sham treated cells. An excerpt:
The neuroregenerative effect of the compounds according to the present invention can be assayed in vitro by measuring their stimulation of the differentiation of neuronal stem cells. Therefore, adult neuronal stem cells have to be isolated and subsequently cultivated in a suitable culture medium. After several passages in vitro the stem cells have to be co-transfected with a DNA construct coding for two discriminable reporter proteins one of them under the control of a constitutive promoter and the other under the control of a beta-III-tubulin promoter. The beta-III-tubulin promoter is induced during the process of neuronal stem cell differentiation; therefore the reporter protein under the control of this promoter serves as a marker for the stem cell differentiation in such an in vitro dual reporter assay (Schneider et al., J Clin Investigation 2005; 115:2083-2098). The person skilled in the art knows several suitable constitutive promoters such as the SV40-promoter, the TK-promoter, or the CMV-promoter. As discriminable reporter proteins for such a dual reporter assay one can use discriminable luciferases such as firefly luciferase and Renilla luciferase. The transfected cells have to be incubated with the test compound and with positive and negative controls for normalization and background correction. As a positive control compound one can use retinoic acid (Guan et al., Cell Tissue Res. 2001; 305:171-176; Jacobs et al., Proc. Natl. Acad. Sci. USA 2006; 103:3902-3907), a suitable negative control is the sham treatment of the cells. The neroregenerative activity of the test compound is determined as the ratio of the signal of the beta-III-tubulin promoter controlled reporter versus the signal of the constitutively expressed reporter and is expressed as fold from the control. This assay is suitable to assess the neuroregenerative activity of tranilast and derivatives thereof, but also can be used to screen for other potential neuroregenerative compounds. Preferably, such a screening can be used to test compounds which are already known to be suitable as a medicament in terms of its toxicology, bioavailability, solubility, stability etc.
Neural stem cells were isolated from the subventricular zone of 4 week-old male Wistar rats as described (Maurer et al, Proteome Sci. 2003; 1:4). Cells were cultivated in Neurobasal medium (Invitrogen) supplemented with B27 (Invitrogen), 2 mM L-glutamine, 100 units/ml penicillin, 100 units/ml streptomycin, 20 ng/ml […] growth factor (EGF), 20 ng/ml fibroblast growth factor-2 (FGF-2), and […] heparin. Once a week the neural stem cells were passaged and experiments were performed after 4 weeks in vitro. For DNA transfection, the cells were dissociated and plated on poly-L-ornithin/laminin-coated 96-well plates at a density of 50.000 cells/well. Cotransfection with the pGL3-p-βIII-tubulin vector (100 ng/well) and the pRL SV40 vector (100 ng/well) was carried out according to the FuGene6 Transfection protocol (Roche). The pRL SV40 vector (Promega) served as an internal control vector.
To amplify the class III β-tubulin gene promoter (fragment −450-+54), rat genomic DNA was used as a template for PCR (Dennis et al., Gene 2002; 294:269-277). The amplified fragment was inserted into the Mlu I/Xho I site of the pGL3-Basic firefly luciferase reporter vector (Promega) to generate the pGL3-p-βIII-tubulin experimental vector.
After overnight incubation, the plate was decanted and given in 8-fold replicates fresh medium containing tranilast (Sigma) or vehicle. As a positive control for in vitro differentiation, stem cells were treated by adding 1 μM retinoic acid (Sigma) to the medium missing the mitogens.
After 48 hrs, the cells were harvested to prepare the cellular extracts for luciferase assay following the directions of the manufacturer (Promega). […]

[3] abbreviates: compound 1 μM alone, FIG. 4a (control staurosporine 0.5 μM).
Where [4] appears, read: compound 1 μM plus staurosporine 0.5 μM, FIG. 4a.

These results are taken from patent publication US20110112187A1, “Use Of Tranilast And Derivatives Thereof For The Therapy Of Neurological Conditions” (priority 2007, published 2011).

With `O=C(C=Cc1ccc2c(c1)OCO2)Nc1ccccc1C(=O)O` [derivative A, N-(3′,4′-methylenedioxycinnamoyl)-anthranilic acid], the “degree of apoptosis relative to the staurosporine control” value in experiment [1] (setting [3]) is reported as 3%; in experiment [1] (setting [4]), 27%. In addition, the “differentiation of neural stem cells to neurons (relative induction of the class III β-tubulin gene promoter controlled luciferase signal)” value in experiment [2] is recorded as “significantly stimulates the differentiation of neural stem cells to neurons in a dose dependent manner”.
For `COc1ccc(C=CC(=O)Nc2ccccc2C)cc1OC` [derivative B, 2-(3′,4′-dimethoxycinnamoylamino)-toluene], the “degree of apoptosis relative to the staurosporine control” value in experiment [1] (setting [3]) stood at 7%; in experiment [1] (setting [4]), 79%. Further, in experiment [2], the “differentiation of neural stem cells to neurons (relative induction of the class III β-tubulin gene promoter controlled luciferase signal)” value is reported as “significantly stimulates the differentiation of neural stem cells to neurons in a dose dependent manner”.
With `O=C(C=Cc1ccccc1)Nc1ccccc1C(=O)O` [derivative C, N-cinnamoyl-anthranilic acid], the “degree of apoptosis relative to the staurosporine control” value in experiment [1] (setting [3]) came to 2%; in experiment [1] (setting [4]), 20%. Moreover, the “differentiation of neural stem cells to neurons (relative induction of the class III β-tubulin gene promoter controlled luciferase signal)” value in experiment [2] is reported as “significantly stimulates the differentiation of neural stem cells to neurons in a dose dependent manner”.
Take `COc1ccccc1NC(=O)C=Cc1ccc(OC)c(OC)c1` [derivative D, 2-(3′,4′-dimethoxycinnamoylamino)-anisole]: the “degree of apoptosis relative to the staurosporine control” value was found to be 7% in experiment [1] (setting [3]) and 80% in experiment [1] (setting [4]). The “differentiation of neural stem cells to neurons (relative induction of the class III β-tubulin gene promoter controlled luciferase signal)” value in experiment [2] is “significantly stimulates the differentiation of neural stem cells to neurons in a dose dependent manner”.
Consider `COc1cccc(NC(=O)C=Cc2ccc(Cl)cc2)c1` [derivative E, 3-(4′-chlorocinnamoylamino)-anisole], for which, in experiment [1] (co-incubation with staurosporine), the “anti-apoptotic effect: reduction of the staurosporine induced apoptosis” value is recorded as “significant reduction of the staurosporine induced apoptosis”. The “degree of apoptosis relative to the staurosporine control” value in experiment [1] (compound 1 μM alone, FIG. 4b (control staurosporine 0.1 μM)) is 6%; in experiment [1] (compound 1 μM plus staurosporine (1 μM printed, 0.1 μM elsewhere in the source), FIG. 4b) it was 25%. For the same compound, the “differentiation of neural stem cells to neurons (relative induction of the class III β-tubulin gene promoter controlled luciferase signal)” value in experiment [2] is reported as “significantly stimulates the differentiation of neural stem cells to neurons in a dose dependent manner”.
Consider `CN[C@@H]1C[C@H]2O[C@@](C)([C@@H]1OC)n1c3ccccc3c3c4c(c5c6ccccc6n2c5c31)C(=O)NC4` [staurosporine], for which the “degree of apoptosis relative to the staurosporine control” value in experiment [1] (staurosporine 0.1 μM alone (positive control, reference), FIG. 4b) is listed as 100%. For the same compound, the “apoptosis (caspase-3/7 luminescence) relative to staurosporine” value in experiment [1] (staurosporine 0.5 μM alone (positive control, reference)) was 100%.
